# Data as given in PMC4841536, “Characterization of the Anti-HCV Activities of the New Cyclophilin Inhibitor STG-175” (PLoS ONE, 2016).
# pEC50, pIC50: −log10 of the molar value. Read-outs that look alike come from different tables or passages of the source.
# Tests used:
# [1] = system: HCV GT3a subgenomic replicon S52/SG-Feo (AI); assay: Luciferase reporter replicon antiviral assay, GT3a; format: cell-based; settings: Hepatitis C virus
# Protocol: (§1) The anti-HCV activity of STG-175 was conducted using a panel of luciferase reporter replicon cell lines including GT1a, GT1b, GT2a, GT3a and GT4a as we described previously. The GT1a subgenomic renilla luciferase reporter replicon H77 RLucP (7) was supplied by Dr. Delaney. The GT1b subgenomic firefly luciferase reporter replicon pFK-I389/NS3-3’ [29] was supplied by Dr. Bartenschlager. The GT1B subgenomic NS3, NS5A and NS5B mutants were created via homologous recombination using the In-Fusion HD Cloning kit (Clontech) as we described previously. The GT2a genomic luciferase reporter replicon Luc-Neo-JFH-1 was generated as previously. The plasmid pFK-Luc-JFH1 was supplied from Drs. […] The CellTiter-Fluor™ Cell Viability Assay is a non-lytic fluorescence assay, which measures the number of live cells. […] Luciferase activity was determined using the Luciferase Assay System (Promega) in a Berthold luminometer. […] Viable cells continuously convert resazurin to resorufin, increasing the overall fluorescence and color of the media surrounding cells.
# (§2) Fig 2 Anti-HCV activities of STG-175 among GTs. […] Luciferase activity was determined using the Luciferase Assay System in a Berthold luminometer. […] Data are expressed as mean of relative light units and calculated EC50s are presented. […]
# [2] = system: HCV GT1a subgenomic replicon H77 RLucP; assay: Luciferase reporter replicon antiviral assay, GT1a; format: cell-based; settings: Hepatitis C virus
# Protocol: as §1, §2
# [3] = system: HCV in mixed PBMCs, NTCP-Huh7 and Huh7.5.1 cells; assay: Dual/triple co-infection in cell co-cultures, HCV readout; format: cell-based, hepatitis C virus
# Human recombinant CypD = target: T1, Human recombinant CypD (Homo sapiens, UniProt P30405); assay: α-chymotrypsin-coupled PPIase assay, CypD isomerase activity; format: biochemical; settings: IC50, neutralization of the isomerase activity of CypD, 5°C, 10 concentrations 0.05–1000 nM
# T1 construct: purchased Atgen
# Protocol: Inhibition of CypA and CypD isomerase activities were quantified using a α-chymotrypsin-coupled assay adapted to a 96-well plate format. Human recombinant CypA or CypD (Atgen) was dissolved to 10 nM in PPIases buffer (50 mM Hepes, 100 mM NaCl, 1 mg/ml bovine serum albumin, 1 mg/ml α-chymotrypsin; pH 8). Succinyl-AAPF-pNA peptide substrate (Sigma) was dissolved to 3.2 mM in LiCl/trifluoroethanol. Each CypI was prepared at 10 concentrations in DMSO, then diluted into CypA/D PPIase buffer to 0.05–1000 nM. Incubations were performed at 5°C. Ninety five μL of reaction mix was added to 5 μL peptide in 96-wells and OD405 nm measured at 6-sec intervals for 6 min using a Biotek Synergy H4 plate reader. Data were fitted with Graphpad Prism 6.0 to acquire first-order rate constants, which were calculated by subtracting the rate constant from uncatalyzed reactions (no CypA/D). The catalytic rate constants were plotted as a function of inhibitor concentration to obtain IC50s.
# The inhibition of the isomerase activities of CypA and CypD were measured with 10 increasing concentrations of STG-175 to quantify IC50 values.
# Fig 1 Anti-PPIase and immunosuppressive activities of STG-175. A. Structures of cyclophilin inhibitors. Inhibition of CypA (B) and CypD (C) isomerase activities were assessed using the α-chymotrypsin-coupled assay. Each test compound was prepared at 10 concentrations (0.05–1000 nM). All solutions were equilibrated, and reactions conducted at 5°C. Reactions were initiated by mixing 95 μL reaction mix with 5 μL of the peptide to be cleaved and measuring OD405 nm at 6-sec intervals for 6 min. […] Enzyme catalyzed rate constants were calculated by subtracting the rate constant from uncatalyzed reactions (no CypA/D), and catalytic rate constants plotted as a function of inhibitor concentration to obtain IC50s. […] D. IL-2 promoter activation upon T-cell stimulation was determined using an engineered Jurkat T-cell line, which expresses betagalactosidase. […] The Y-axis values are expressed as percentage of activity. Data expressed as EC50s are representative of two independent experiments.
# T1 sequence (P30405 30-207): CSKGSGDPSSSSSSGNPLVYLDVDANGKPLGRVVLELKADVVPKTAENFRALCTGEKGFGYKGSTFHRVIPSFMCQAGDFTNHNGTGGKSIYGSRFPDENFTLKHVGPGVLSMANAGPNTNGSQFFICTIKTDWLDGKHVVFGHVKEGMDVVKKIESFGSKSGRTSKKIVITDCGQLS
smiles,measurement,setting,value
CC=CCC(C)C(O)C1C(=O)NC(CC)C(=O)N(C)C(CSCCCCO)C(=O)N(C)C(CC(C)(C)O)C(=O)NC(C(C)C)C(=O)N(C)C(CC(C)C)C(=O)NC(C)C(=O)NC(C)C(=O)N(C)C(CC(C)C)C(=O)N(C)C(CC(C)C)C(=O)N(C)C(C(C)C)C(=O)N1C (stereo not shown) [STG-175],pEC50,"[1]; 72 h, read-out: EC50 GT3a",7.41
same,pEC50,[1]; read-out: EC50 GT3a (Fig 2D),7.41
same,pEC50,"[2]; 72 h post-drug addition, luciferase, read-out: EC50 GT1a",7.87
same,pEC50,"[2]; Fig 2D table, unit inferred, read-out: EC50 GT1a (Fig 2D)",7.87
same,HCV infection in co-infection,[3]; STG-175 added together with virus,totally blocked
same,pre-established HCV infection in co-infection,[3]; added 3 days post-infection and then every 3 days,totally eradicated
same,pIC50,Human recombinant CypD,8.89
